The record followed here is patent US11439707B2, “Hypocrellin derivative substituted both in a peri-position and in 2-position by amino, preparation method, and application thereof” (priority 2017, dated 2022).

The structures appear in SMILES notation. Several values for one entry are separate records, joined by “and”; a condition that tells them apart may be missing. Equal entries are not always repeated.

Data set [1] in a line: absorption spectrum (maximum absorption wavelength, molar extinction coefficient). The data set is classed as physicochemical.
Data set [2] can be described thus: singlet oxygen efficiency test, reference rose bengal. In kind it is physicochemical.

With `COCCOCCC(=O)OCCOCCNc1c(NCCOCCOC(=O)CCOCCOC)c2c(=O)cc(OC)c3c4c(OC)cc(=O)c5c(O)c(OC)c6c(c(c1C=C(C)C6C(C)=O)c23)c54` (stereo not drawn) [HB-1a-PEG1], in data set [1], the maximum absorption wavelength was 625 nm and the molar extinction coefficient is on record as 31,000 M^−1cm^−1. Moreover, the singlet oxygen yield in data set [2] is given as 35%.
The like results for `COc1c(O)c2c(=O)cc(OC)c3c4c(OC)cc(=O)c5c(NCCOCCO)c(NCCOCCO)c6c(c(c1C(C(C)=O)C(C)=C6)c23)c54` (stereo not drawn) [HB-1a] were, in that order, 630 nm, 30,000 M^−1cm^−1 and 35%.
The like results for `COCCOCCOCCOCCOCCOCCOCCC(=O)OCCOCCNc1c(O)c2c(=O)cc(OC)c3c4c(OC)cc(=O)c5c(NCCOCCOC(=O)CCOCCOCCOCCOCCOCCOCCOC)c(OC)c6c(c(c1C=C(C)C6C(C)=O)c23)c54` (stereo not drawn) [HB-1b-PEG6] were, in that order, 622 nm, 30,000 M^−1cm^−1 and 32%.
The like results for `COc1c(NCCOCCO)c2c(=O)cc(OC)c3c4c(OC)cc(=O)c5c(O)c(NCCOCCO)c6c(c(c1C(C(C)=O)C(C)=C6)c23)c54` (stereo not drawn) [HB-1b] were, in that order, 622 nm, 28,000 M^−1cm^−1 and 36%.
Consider `COCCOCCC(=O)OCCOCCNc1c2c3c4c(c(OC)c(=O)c5c(O)cc(OC)c(c6c(OC)cc(NCCOCCOC(=O)CCOCCOC)c(c1=O)c63)c54)C(C(C)=O)C(C)=C2` (stereo not drawn) [HB-1c-PEG1], for which, in data set [1], the maximum absorption wavelength came out at 626 nm and the molar extinction coefficient is listed as 33,000 M^−1cm^−1. The singlet oxygen yield in data set [2] turned out to be 38%.
The like results for `COc1c2c3c4c(c(NCCOCCO)c(=O)c5c(O)cc(OC)c(c6c(OC)cc(NCCOCCO)c(c1=O)c63)c54)C=C(C)C2C(C)=O` (stereo not drawn) [HB-1d] were, in that order, 622 nm, 30,000 M^−1cm^−1 and 35%.
Taken in the same sequence, the figures for `COCCOCCC(=O)OCCNc1c(NCCOC(=O)CCOCCOC)c2c(=O)cc(OC)c3c4c(OC)cc(=O)c5c(O)c(OC)c6c(c(c1C=C(C)C6C(C)=O)c23)c54` (stereo not drawn) [HB-2a-PEG1] were 620 nm, 30,500 M^−1cm^−1 and 30%.
Turning to `COc1c(O)c2c(=O)cc(OC)c3c4c(OC)cc(=O)c5c(NCCO)c(NCCO)c6c(c(c1C(C(C)=O)C(C)=C6)c23)c54` (stereo not drawn) [HB-2a], in data set [2], the singlet oxygen yield came to 28%.
On to `COc1c(NCCO)c2c(=O)cc(OC)c3c4c(OC)cc(=O)c5c(O)c(NCCO)c6c(c(c1C(C(C)=O)C(C)=C6)c23)c54` (stereo not drawn) [HB-2b], for which, in data set [1], the maximum absorption wavelength was 627 nm and the molar extinction coefficient is 31.500 M⁻¹ cm⁻¹. For the same compound, the singlet oxygen yield in data set [2] is recorded as 25%.
The like results for `COCCOCCOCCOCCOCCOCCOCCOCCOCCOCCOCCOCCOCCC(=O)OCCNc1c2c3c4c(c(OC)c(=O)c5c(O)cc(OC)c(c6c(OC)cc(NCCOC(=O)CCOCCOCCOCCOCCOCCOCCOCCOCCOCCOCCOCCOCCOC)c(c1=O)c63)c54)C(C(C)=O)C(C)=C2` (stereo not drawn) [HB-2c-PEG12] were, in that order, 626 nm, 32,500 M^−1cm^−1 and 36%.
Turning to `COc1c2c3c4c(c(NCCO)c(=O)c5c(NCCO)cc(OC)c(c6c(OC)cc(O)c(c1=O)c63)c54)C=C(C)C2C(C)=O` (stereo not drawn) [HB-2c], in data set [1], the maximum absorption wavelength was found to be 628 nm and the molar extinction coefficient is reported as 31,000 M^−1cm^−1. This compound also gave a singlet oxygen yield in data set [2] of 30%.
The like results for `COc1c2c3c4c(c(NCCO)c(=O)c5c(O)cc(OC)c(c6c(OC)cc(NCCO)c(c1=O)c63)c54)C=C(C)C2C(C)=O` (stereo not drawn) [HB-2d] were, in that order, 629 nm, 30,000 M^−1cm^−1 and 26%.
Taken in the same sequence, the figures for `COc1c(O)c2c(=O)cc(OC)c3c4c(OC)c(Br)c(=O)c5c(NCCNCCOCCO)c(NCCNCCOCCO)c6c(c(c1C(C(C)=O)C(C)=C6)c23)c54` (stereo not drawn) [HB-5a-Br-PEG1] were 622 nm, 30,500 M^−1cm^−1 and 28%.
Taken in the same sequence, the figures for `COc1c(O)c2c(=O)cc(OC)c3c4c(OC)cc(=O)c5c(NCCNCCOCCO)c(NCCNCCOCCO)c6c(c(c1C(C(C)=O)C(C)=C6)c23)c54` (stereo not drawn) [HB-5a-PEG1] were 622 nm, 29,500 M^−1cm^−1 and 28%.
In the case of `COc1c(NCCNCCOCCOCCOCCOCCO)c2c(=O)cc(OC)c3c4c(OC)cc(=O)c5c(O)c(NCCNCCOCCOCCOCCOCCO)c6c(c(c1C(C(C)=O)C(C)=C6)c23)c54` (stereo not drawn) [HB-5b-PEG4], in data set [1], the maximum absorption wavelength is 625 nm and the molar extinction coefficient was 30,500 M^−1cm^−1. The same compound came in with a singlet oxygen yield in data set [2] of 31%.
Taken in the same sequence, the figures for `COc1c2c3c4c(c(NCCNCCOCCOCCOCCOCCO)c(=O)c5c(NCCNCCOCCOCCOCCOCCO)c(Br)c(OC)c(c6c(OC)cc(O)c(c1=O)c63)c54)C=C(C)C2C(C)=O` (stereo not drawn) [HB-5c-Br-PEG4] were 630 nm, 31,500 M^−1cm^−1 and 36%.
For the compound `COc1c2c3c4c(c(NCCNCCOCCOCCOCCOCCO)c(=O)c5c(NCCNCCOCCOCCOCCOCCO)cc(OC)c(c6c(OC)cc(O)c(c1=O)c63)c54)C=C(C)C2C(C)=O` (stereo not drawn) [HB-5c-PEG4], in data set [1], the maximum absorption wavelength was 628 nm and the molar extinction coefficient was 31,500 M^−1cm^−1. The compound also showed a singlet oxygen yield in data set [2] of 35%.
The like results for `COc1c2c3c4c(c(NCCNCCOCCO)c(=O)c5c(O)c(Br)c(OC)c(c6c(OC)cc(NCCNCCOCCO)c(c1=O)c63)c54)C=C(C)C2C(C)=O` (stereo not drawn) [HB-5d-Br-PEG1] were, in that order, 624 nm, 29,500 M^−1cm^−1 and 32%.
Taken in the same sequence, the figures for `COc1c2c3c4c(c(NCCNCCOCCO)c(=O)c5c(O)cc(OC)c(c6c(OC)cc(NCCNCCOCCO)c(c1=O)c63)c54)C=C(C)C2C(C)=O` (stereo not drawn) [HB-5d-PEG1] were 625 nm, 30,500 M^−1cm^−1 and 32%.
Taken in the same sequence, the figures for `COc1c(O)c2c(=O)cc(OC)c3c4c(OC)cc(=O)c5c(NCCSCCOCCO)c(NCCSCCOCCO)c6c(c(c1C(C(C)=O)C(C)=C6)c23)c54` (stereo not drawn) [HB-6a-PEG1] were 622 nm, 30,500 M^−1cm^−1 and 28%.
As for `COc1c2c3c4c(c(NCCSCCOCCO)c(=O)c5c(O)cc(OC)c(c6c(OC)cc(NCCSCCOCCO)c(c1=O)c63)c54)C=C(C)C2C(C)=O` (stereo not drawn) [HB-6d-PEG1], in data set [1], the maximum absorption wavelength was 625 nm and the molar extinction coefficient is recorded as 30,500 M^−1cm^−1. In data set [2], this compound displayed a singlet oxygen yield of 32%.
With `COc1c(O)c2c(=O)cc(OC)c3c4c(OC)cc(=O)c5c(NCC(=O)O)c(NCC(=O)O)c6c(c(c1C(C(C)=O)C(C)=C6)c23)c54` (stereo not drawn) [HB-7a], in data set [1], the maximum absorption wavelength turned out to be 620 nm and the molar extinction coefficient is 26,500 M^−1cm^−1. The singlet oxygen yield in data set [2] was determined as 28%.
Taken in the same sequence, the figures for `COc1c(NCC(=O)O)c2c(=O)cc(OC)c3c4c(OC)cc(=O)c5c(O)c(NCC(=O)O)c6c(c(c1C(C(C)=O)C(C)=C6)c23)c54` (stereo not drawn) [HB-7b] were 622 nm, 28,000 M^−1cm^−1 and 25%.
Taken in the same sequence, the figures for `COc1c2c3c4c(c(NCC(=O)O)c(=O)c5c(NCC(=O)O)cc(OC)c(c6c(OC)cc(O)c(c1=O)c63)c54)C=C(C)C2C(C)=O` (stereo not drawn) [HB-7c] were 618 nm, 27,500 M^−1cm^−1 and 27%.
The like results for `COCCOC(=O)CCCNc1c(NCCCC(=O)OCCOC)c2c(=O)cc(OC)c3c4c(OC)cc(=O)c5c(O)c(OC)c6c(c(c1C=C(C)C6C(C)=O)c23)c54` (stereo not drawn) [HB-8a-PEG1] were, in that order, 621 nm, 30,500 M^−1cm^−1 and 28%.
For the compound `COCCOCCOCCOCCOCCOCCOC(=O)CCCNc1c(O)c2c(=O)cc(OC)c3c4c(OC)cc(=O)c5c(NCCCC(=O)OCCOCCOCCOCCOCCOCCOC)c(OC)c6c(c(c1C=C(C)C6C(C)=O)c23)c54` (stereo not drawn) [HB-8b-PEG6], in data set [1], the maximum absorption wavelength is 622 nm and the molar extinction coefficient is 30,000 M^−1cm^−1. In data set [2], this compound came in with a singlet oxygen yield of 30%.
The like results for `COc1c(NCCCC(=O)O)c2c(=O)cc(OC)c3c4c(OC)cc(=O)c5c(O)c(NCCCC(=O)O)c6c(c(c1C(C(C)=O)C(C)=C6)c23)c54` (stereo not drawn) [HB-8b] were, in that order, 618 nm, 28,500 M^−1cm^−1 and 26%.
Regarding `COCCOCCOCCOCCOCCOCCOC(=O)CCCNc1c2c3c4c(c(OC)c(=O)c5c(O)cc(OC)c(c6c(OC)cc(NCCCC(=O)OCCOCCOCCOCCOCCOCCOC)c(c1=O)c63)c54)C(C(C)=O)C(C)=C2` (stereo not drawn) [HB-8c-PEG6], in data set [1], the maximum absorption wavelength stood at 630 nm and the molar extinction coefficient is on record as 32,500 M^−1cm^−1. Besides, the singlet oxygen yield in data set [2] is listed as 34%.
Consider `COCCOCCOCCOCCOCCOCCOCCOCCOCCOCCOCCOCCOC(=O)CCCNc1c2c3c4c(c(OC)c(=O)c5c(O)cc(OC)c(c6c(OC)cc(NCCCC(=O)OCCOCCOCCOCCOCCOCCOCCOCCOCCOCCOCCOCCOC)c(c1=O)c63)c54)C(C(C)=O)C(C)=C2` (stereo not drawn) [HB-8c-PEG12], for which, in data set [1], the maximum absorption wavelength worked out at 628 nm and the molar extinction coefficient is on record as 33,000 M^−1cm^−1. The same compound returned a singlet oxygen yield in data set [2] of 36%.
`C=CC1=C(C)c2cc3[nH]c(cc4[nH]c(cc5nc(cc1n2)C(C)=C5C=C)c(C)c4CCC(=O)O)c(CCC(=O)O)c3C` [PpIX, reference compound]: in data set [1], the maximum absorption wavelength was 570 nm and 630 nm; the molar extinction coefficient result is recorded as “less than 10000 M^−1cm^−1”.
